These results are taken from patent publication US20240115572A1, “METHODS FOR TREATING GLIOBLASTOMAS WITH SEPIAPTERIN” (priority 2021, published 2024).

In test [1] the test system is Orthotopic glioblastoma tumors, nude (U87) mouse model. Kind of test: Survival of nude mice with orthotopic U87 glioblastoma tumors, sepiapterin plus radiation. Type of test: in vivo. As to the method: Orthotopic glioblastoma tumors were established in nude (U87) and syngeneic (GL261) mouse models on Day 0 (N=13/group). Starting on Day 6 in the U87 mouse model, sepiapterin (SP) was orally administered for either 6 days (10 mg/kg sepiapterin) or daily (1 mg/kg sepiapterin) until end of experiment (60 days). Starting on Day 6 in the GL261 mouse model, SP was orally administered daily (10 mg/kg) until the end of experiment (60 days). Radiation (IR) (5 fxs of 2 Gy) with 3D treatment planning and delivery was started on Day 13, ending on Day 17.

Test [2] deals with Orthotopic GL261 tumors. In words: Survival of mice with orthotopic GL261 tumors, temozolomide with or without sepiapterin. Type of test: in vivo, mouse. Particulars: 10 mg/kg SP orally from day 7 until end of study + 60 mg/kg TMZ for 5 days. Here is the method:
Orthotopic GL261 tumors were established on Day 0. Starting on Day 7 mice were treated with 60 mg/kg temozolomide (TMZ) for 5 days+/−10 mg/kg SP given orally from day 7 until the end of the study. […] Future animal studies will combine with fractionated radiotherapy.

The subject of test [3] is adult female C57BL/6J mice. Kind of test: Novel object recognition (NOR) test after brain irradiation. The format is in vivo, mouse. The text has this: The novel object recognition test is a behavioral test in which a mouse is allowed to explore two similar objects during the first (training) session, and then after a certain length of time, one of the two training objects is replaced by a new object during a later (test) session. Because mice have an innate preference for novelty, if the mouse recognizes the familiar object, it will spend most of its time at the novel object. The amount of time taken to explore the new object provides a measure of recognition memory. 24 adult female C57BL/6J mice were treated as follows: (1) 8 mice were irradiated (IR) with 10 Gy total dose, divided into three fractions with a “rest” day in between fractions, covering about a 1 mm square over the center of the head; (2) 8 mice were similarly irradiated, and also treated with 10 mg/kg/day sepiapterin (SP), administered as oral gavage, starting on day 1 of IR to 6 days beyond last radiation fraction (i.e. 11 days total); (3) 8 mice were untreated naïve. 1 month following treatment, mice were tested in the novel object recognition (NOR) task with an hour inter-trial interval (ITI) to assess hippocampal mediated memory (i.e. the test occurred one hour after training). In both training and test phases, time investigating objects was measured for 5 minutes. Two independent observers were used to evaluate. The Discrimination Index=(novel−familiar)/(novel+familiar).

Regarding `C[C@H](O)C(=O)C1=Nc2c(nc(N)[nH]c2=O)NC1` [sepiapterin, (S)-2-amino-6-(2-hydroxypropanoyl)-7,8-dihydropteridin-4(3H)-one], the “Survival vs control group” value in test [1] (1 mg/kg oral continuously (daily from Day 6 to day 60) + IR, vs control) is recorded as “significantly different”; in test [1] (10 mg/kg oral for 6d from Day 6 + IR (5 fxs of 2 Gy, Day 13-17), vs control (no IR or SP)), “significantly different”. The “Survival vs all other groups (Control, IR alone, and 10 mg/kg for 6d)” value in test [1] (1 mg/kg oral continuously + IR) is listed as “significantly different from all other groups”. The “Survival vs IR alone group” value in test [1] (10 mg/kg oral for 6d from Day 6 + IR, vs IR alone) is given as “did not achieve statistical significance”. In addition, the “Survival vs TMZ alone” value in test [2] was “improved survival”. In test [3] (10 Gy IR in three fractions + 10 mg/kg/day oral gavage for 11 days, NOR 1 month after treatment, 1 h ITI), the “Discrimination Index compared with irradiated-only group” value is “increased”. Besides, the “NOR Discrimination Index, Mean” value in test [3] (IR 10 Gy + 10 mg/kg/day sepiapterin, N=8, 1 month after treatment, (novel−familiar)/(novel+familiar)) came to 0.262. Further, the “Diff of Means of Discrimination Index, IR + drug vs. IR” value in test [3] (Tukey test, P 0.331, P < 0.050: No) is given as 0.135. Moreover, the “Diff of Means of Discrimination Index, Naïve vs. IR + drug” value in test [3] (Tukey test, P 0.475, P < 0.050: No) worked out at 0.110.
